{
  "source": "patent US7947308B2",
  "about": "“Effervescent powders for inhalation” (priority 2005, dated 2011)",
  "assay": "In vitro aerosol deposition, Mark II Andersen Cascade Impactor (MMAD, FPF, GSD)",
  "type": "physicochemical",
  "details": "spray-dried carrier particles containing ciprofloxacin; UV assay of impactor plates",
  "from_the_text": "The pulmonary deposition of the empty effervescent carrier particles and the carrier particles containing nanoparticles were investigated in vitro by measuring the Mass Median Aerodynamic Diameter (MMAD) using a Mark II Andersen Cascade Impactor (Thermo Andersen, Smyrna, Ga.) in combination with a new high efficiency inhaler (described in U.S. Patent Application Publication No. 2004/0107963 to Finlay, W. H. & Wang, Z., filed Dec. 2, 2003, entitled “Device and Method for Deagglomeration of Powder for Inhalation”, the contents of which are herein incorporated by reference); Wang, Z., Grgic, B., and Finlay, W. H. (2006) A Dry Powder Inhaler with Reduced Mouth-throat Deposition. […]\nThe MMAD was calculated by linear interpolation of the cumulative mass distribution to obtain the particle size for which the cumulative mass under this size was 50% (Sham, J.-H., Zhang, Y., Finlay, W. H., Roa, W. H. & Lobenberg, R. (2004) Formulation and characterization of spray-dried powders containing nanoparticles for aerosol delivery to the lung. International Journal of Pharmaceutics. 269: 457-467). […]\nParticle size and FPF were determined as noted above in Example 1. The dispersibility and content of ciprofloxacin of the spray-dried powders was determined using a Mark II Andersen impactor. […] The MMAD was calculated by a nonlinear regression fit of a log-normal function to the data. […]",
  "data": [
    {"smiles": "O=C(O)c1cn(C2CC2)c2cc(N3CCNCC3)c(F)cc2c1=O", "note": "[ciprofloxacin]", "values": [
      {"measurement": "range size of most of the particles (cascade impactor)", "value": "4.9+/−1 μm"}
    ]}
  ]
}
